Source: patent US6096930A, “Herbicidal cyclohexane-1,3-dione derivatives and their preparation process” (Korea Research Institute of Chemical Technology, priority 1994, dated 2000)
Like-named read-outs stand apart in the source and are kept apart here.

Assays:
Experiment in all cases: Herbicidal activity for paddy test
Type in all cases: in vivo
SAGPY = conditions: for pest or weed control at 2 g/ha: 0.002 kg/ha; for pest or weed control at 8 g/ha: 0.008 kg/ha; for pest or weed control at 31 g/ha: 0.031 kg/ha; for pest or weed control at 125 g/ha: 0.125 kg/ha; for pest or weed control at 500 g/ha: 0.500 kg/ha
From the text: (§1) The sterilized sandy loam soil is filled in test pot having a surface area of 348 cm^2 for upland test conditions or 115 cm^2 for paddy test species were planted in furrows.
(§2) The herbicidal activity data were taken visually by percent control, wherein 0 signifies no herbicidal effect and 100 signifies complete kill.

ECHOR = conditions: for pest or weed control at 2 g/ha: 0.002 kg/ha; for pest or weed control at 8 g/ha: 0.008 kg/ha; for pest or weed control at 31 g/ha: 0.031 kg/ha; for pest or weed control at 125 g/ha: 0.125 kg/ha; for pest or weed control at 500 g/ha: 0.500 kg/ha
From the text: as §1, §2

ORYSA = conditions: for plant injury at 2 g/ha: 0.002 kg/ha; for plant injury at 8 g/ha: 0.008 kg/ha; for plant injury at 31 g/ha: 0.031 kg/ha; for plant injury at 125 g/ha: 0.125 kg/ha; for plant injury at 500 g/ha: 0.500 kg/ha
From the text: as §1, §2

SCPJU = conditions: for pest or weed control at 2 g/ha: 0.002 kg/ha; for pest or weed control at 8 g/ha: 0.008 kg/ha; for pest or weed control at 31 g/ha: 0.031 kg/ha; for pest or weed control at 125 g/ha: 0.125 kg/ha; for pest or weed control at 500 g/ha: 0.500 kg/ha
From the text: as §1, §2

MOOVA = conditions: for pest or weed control at 2 g/ha: 0.002 kg/ha; for pest or weed control at 8 g/ha: 0.008 kg/ha; for pest or weed control at 31 g/ha: 0.031 kg/ha; for pest or weed control at 125 g/ha: 0.125 kg/ha; for pest or weed control at 500 g/ha: 0.500 kg/ha
From the text: as §1, §2

[1] = 3 Leaf, read-out: Herbicidal activity, ORYSA (3 Leaf)
[2] = seed, read-out: Herbicidal activity, ORYSA (seed)

CCC(=NOC)C1=C(O)CC(c2c(C)c3c(c(C)c2Cl)CC(C)(C)C3)CC1=O (stereo not drawn) [Compound 21]
40%: pest or weed control at 2 g/ha (ECHOR)
30%: pest or weed control at 8 g/ha (MOOVA)
95%: pest or weed control at 8 g/ha (ECHOR)
0%: pest or weed control at 2 g/ha (SAGPY) | pest or weed control at 8 g/ha (SAGPY) | pest or weed control at 31 g/ha (SAGPY) | pest or weed control at 125 g/ha (SAGPY) | pest or weed control at 500 g/ha (SAGPY) | plant injury at 2 g/ha (ORYSA; [1]) | plant injury at 8 g/ha (ORYSA; [1]) | plant injury at 31 g/ha (ORYSA; [1]) | pest or weed control at 2 g/ha (SCPJU) | pest or weed control at 8 g/ha (SCPJU) | pest or weed control at 31 g/ha (SCPJU) | pest or weed control at 125 g/ha (SCPJU) | pest or weed control at 500 g/ha (SCPJU) | pest or weed control at 2 g/ha (MOOVA)
20%: plant injury at 2 g/ha (ORYSA; [2])
60%: pest or weed control at 125 g/ha (MOOVA)
100%: pest or weed control at 31 g/ha (ECHOR) | pest or weed control at 125 g/ha (ECHOR) | pest or weed control at 500 g/ha (ECHOR) | plant injury at 500 g/ha (ORYSA; [1]) | plant injury at 8 g/ha (ORYSA; [2]) | plant injury at 31 g/ha (ORYSA; [2]) | plant injury at 125 g/ha (ORYSA; [2]) | plant injury at 500 g/ha (ORYSA; [2])
80%: plant injury at 125 g/ha (ORYSA; [1])
50%: pest or weed control at 31 g/ha (MOOVA)
70%: pest or weed control at 500 g/ha (MOOVA)

CCON=C(CC)C1=C(O)CC(c2c(C)c3c(c(C)c2Cl)CC(C)(C)C3)CC1=O (stereo not drawn) [Compound 22]
0%: pest or weed control at 2 g/ha (SAGPY) | pest or weed control at 8 g/ha (SAGPY) | pest or weed control at 31 g/ha (SAGPY) | pest or weed control at 125 g/ha (SAGPY) | pest or weed control at 500 g/ha (SAGPY) | pest or weed control at 2 g/ha (ECHOR) | plant injury at 2 g/ha (ORYSA; [1]) | plant injury at 8 g/ha (ORYSA; [1]) | plant injury at 31 g/ha (ORYSA; [1]) | plant injury at 2 g/ha (ORYSA; [2]) | plant injury at 8 g/ha (ORYSA; [2]) | pest or weed control at 2 g/ha (SCPJU) | pest or weed control at 8 g/ha (SCPJU) | pest or weed control at 31 g/ha (SCPJU) | pest or weed control at 125 g/ha (SCPJU) | pest or weed control at 500 g/ha (SCPJU) | pest or weed control at 2 g/ha (MOOVA) | pest or weed control at 8 g/ha (MOOVA) | pest or weed control at 31 g/ha (MOOVA) | pest or weed control at 125 g/ha (MOOVA)
95%: pest or weed control at 8 g/ha (ECHOR)
20%: plant injury at 125 g/ha (ORYSA; [1])
60%: pest or weed control at 500 g/ha (MOOVA)
100%: pest or weed control at 31 g/ha (ECHOR) | pest or weed control at 125 g/ha (ECHOR) | pest or weed control at 500 g/ha (ECHOR) | plant injury at 500 g/ha (ORYSA; [1]) | plant injury at 31 g/ha (ORYSA; [2]) | plant injury at 125 g/ha (ORYSA; [2]) | plant injury at 500 g/ha (ORYSA; [2])

C=CCON=C(CC)C1=C(O)CC(c2c(C)c3c(c(C)c2Cl)CC(C)(C)C3)CC1=O (stereo not drawn) [Compound 23]
100%: pest or weed control at 31 g/ha (ECHOR) | pest or weed control at 125 g/ha (ECHOR) | pest or weed control at 500 g/ha (ECHOR) | plant injury at 31 g/ha (ORYSA; [2]) | plant injury at 125 g/ha (ORYSA; [2]) | plant injury at 500 g/ha (ORYSA; [2])
0%: pest or weed control at 2 g/ha (SAGPY) | pest or weed control at 8 g/ha (SAGPY) | pest or weed control at 31 g/ha (SAGPY) | pest or weed control at 125 g/ha (SAGPY) | pest or weed control at 500 g/ha (SAGPY) | pest or weed control at 2 g/ha (ECHOR) | plant injury at 2 g/ha (ORYSA; [1]) | plant injury at 8 g/ha (ORYSA; [1]) | plant injury at 31 g/ha (ORYSA; [1]) | plant injury at 125 g/ha (ORYSA; [1]) | plant injury at 2 g/ha (ORYSA; [2]) | pest or weed control at 2 g/ha (SCPJU) | pest or weed control at 8 g/ha (SCPJU) | pest or weed control at 31 g/ha (SCPJU) | pest or weed control at 125 g/ha (SCPJU) | pest or weed control at 500 g/ha (SCPJU) | pest or weed control at 2 g/ha (MOOVA) | pest or weed control at 8 g/ha (MOOVA) | pest or weed control at 31 g/ha (MOOVA) | pest or weed control at 125 g/ha (MOOVA) | pest or weed control at 500 g/ha (MOOVA)
40%: pest or weed control at 8 g/ha (ECHOR)
60%: plant injury at 500 g/ha (ORYSA; [1])
10%: plant injury at 8 g/ha (ORYSA; [2])
